# According to US10259779B2 (WAYNE STATE UNIVERSITY, priority 2016, dated 2019):
# Assays:
# [1] = system: HDAC proteins in HeLa cell lysates; test: Global HDAC inhibition with HeLa cell lysates (HDAC-Glo I/II substrate); type: biochemical; settings: Hela Lysate
# Method: HDAC activity was measured using the commercially available HDAC-Glo™ I/II substrate (Promega).
# Lysates were prepared according to the reported procedure.^28 HeLa-S3 cells (purchased from Biovest) were lysed in lysis buffer (1×10^9 cells in 10 mL lysis buffer; 50 mM Tris-HCl, pH 8.0, 10% glycerol, 150 mM NaCl, 0.5% Triton X-100, and 1× protease inhibitor cocktail (GenDEPOT)) with rotation at 4° C. for 30 min. Cell debris was removed by centrifugation at 12000 rpm at 4° C. for 30 min. Protein concentration of the supernatant was determined using Bio-Rad protein assay (BioRad, Bradford reagent). Lysates were stored at −80° C.
# To measure global HDAC inhibition, HeLa cell lysates (1 μg total protein) were mixed with HDAC-Glo™ buffer in polystyrene 96-well half area white plate (Corning) to a final volume of 12 μL, followed by addition of inhibitors in DMSO (0.5 μL) and incubation for 15 min at room temperature without rocking. An uninhibited control reaction was also included that contained DMSO (0.5 μL). Finally, deacetylase activity was measured using the HDAC-Glo™ assay kit (Promega) as per the manufacturer's protocol. Specifically, the HDAC-Glo™ substrate (1 mL) and developer ([…]) were first premixed to form the HDAC-Glo™ reagents. Then, to monitor deacetylase activity, HDAC-Glo™ reagent (5 μL) and HDAC-Glo™ buffer (7.5 μL) were added to each well (25 μL total volume) and incubated for 35 min at room temperature without rocking. The deacetylase activity was measured as luminescent signal using a GeniosPlus Fluorimeter (Tecan) at optimal gain. The concentrations of inhibitors reported in the dose-dependent studies (Table 2) are final concentrations after addition of HDAC-Glo™ reagent HDAC-Glo™ buffer.
# recombinant HDAC8 = molecular target: T1, recombinant HDAC8 (Homo sapiens, UniProt Q9BY41); test: Recombinant HDAC8 inhibition (HDAC-Glo); type: biochemical; settings: read-out: Deacetylase activity (%) HDAC8
# T1 construct: purchased BPS Bioscience
# T1 sequence (Q9BY41 1-377): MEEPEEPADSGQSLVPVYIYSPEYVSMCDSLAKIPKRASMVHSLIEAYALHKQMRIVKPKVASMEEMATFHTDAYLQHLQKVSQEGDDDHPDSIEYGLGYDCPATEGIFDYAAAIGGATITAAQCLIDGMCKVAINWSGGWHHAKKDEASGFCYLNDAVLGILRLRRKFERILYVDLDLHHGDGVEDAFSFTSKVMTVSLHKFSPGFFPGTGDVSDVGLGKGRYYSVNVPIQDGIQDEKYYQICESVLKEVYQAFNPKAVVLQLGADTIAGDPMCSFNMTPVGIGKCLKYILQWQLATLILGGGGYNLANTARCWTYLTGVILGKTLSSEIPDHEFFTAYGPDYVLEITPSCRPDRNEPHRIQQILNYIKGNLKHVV
# Method: Inhibitory activity with HDAC8 was measured using the following procedure. In a half area 96-well white opaque plate, recombinant HDAC8 (75 ng, BPS Bioscience) was incubated in HDAC-Glo™ buffer (39 μL) with inhibitor in DMSO (1 μL), or DMSO alone (1 μL) as a control, for 15 minutes at room temperature. HDAC-Glo™ reagent (10 μL) was added to each reaction and incubated for 30 min at room temperature. Luminescent signal was measured 30 minutes after adding the substrate reagent using a Geniosplus Fluorimeter (Tecan) at optimal gain. To determine IC50, the luminescent signal was first background corrected with the signal from a background control reaction where no HDAC8 enzyme was added.
# U937 cells = test: In vitro cell growth inhibition, MTT assay, U937; type: cell-based; settings: U937 cell line
# in vitro = settings: human, Jurkat cells (leukemia cell line)
# HDAC1 [2] = molecular target: T2, HDAC1 (Homo sapiens, UniProt Q13547); test: ELISA-based HDAC activity assay, HDAC1; settings: read-out: Deacetylase activity (%) HDAC1
# HDAC2 = HDAC2 (Homo sapiens, UniProt Q92769); test: ELISA-based HDAC activity assay, HDAC2; settings: read-out: Deacetylase activity (%) HDAC2
# HDAC3 = HDAC3 (Homo sapiens, UniProt O15379); test: ELISA-based HDAC activity assay, HDAC3; settings: read-out: Deacetylase activity (%) HDAC3
# HDAC6 [3] = molecular target: T3, HDAC6 (Homo sapiens, UniProt Q9UBN7); test: ELISA-based HDAC activity assay, HDAC6; settings: read-out: Deacetylase activity (%) HDAC6
# T3 sequence (Q9UBN7 1-1215): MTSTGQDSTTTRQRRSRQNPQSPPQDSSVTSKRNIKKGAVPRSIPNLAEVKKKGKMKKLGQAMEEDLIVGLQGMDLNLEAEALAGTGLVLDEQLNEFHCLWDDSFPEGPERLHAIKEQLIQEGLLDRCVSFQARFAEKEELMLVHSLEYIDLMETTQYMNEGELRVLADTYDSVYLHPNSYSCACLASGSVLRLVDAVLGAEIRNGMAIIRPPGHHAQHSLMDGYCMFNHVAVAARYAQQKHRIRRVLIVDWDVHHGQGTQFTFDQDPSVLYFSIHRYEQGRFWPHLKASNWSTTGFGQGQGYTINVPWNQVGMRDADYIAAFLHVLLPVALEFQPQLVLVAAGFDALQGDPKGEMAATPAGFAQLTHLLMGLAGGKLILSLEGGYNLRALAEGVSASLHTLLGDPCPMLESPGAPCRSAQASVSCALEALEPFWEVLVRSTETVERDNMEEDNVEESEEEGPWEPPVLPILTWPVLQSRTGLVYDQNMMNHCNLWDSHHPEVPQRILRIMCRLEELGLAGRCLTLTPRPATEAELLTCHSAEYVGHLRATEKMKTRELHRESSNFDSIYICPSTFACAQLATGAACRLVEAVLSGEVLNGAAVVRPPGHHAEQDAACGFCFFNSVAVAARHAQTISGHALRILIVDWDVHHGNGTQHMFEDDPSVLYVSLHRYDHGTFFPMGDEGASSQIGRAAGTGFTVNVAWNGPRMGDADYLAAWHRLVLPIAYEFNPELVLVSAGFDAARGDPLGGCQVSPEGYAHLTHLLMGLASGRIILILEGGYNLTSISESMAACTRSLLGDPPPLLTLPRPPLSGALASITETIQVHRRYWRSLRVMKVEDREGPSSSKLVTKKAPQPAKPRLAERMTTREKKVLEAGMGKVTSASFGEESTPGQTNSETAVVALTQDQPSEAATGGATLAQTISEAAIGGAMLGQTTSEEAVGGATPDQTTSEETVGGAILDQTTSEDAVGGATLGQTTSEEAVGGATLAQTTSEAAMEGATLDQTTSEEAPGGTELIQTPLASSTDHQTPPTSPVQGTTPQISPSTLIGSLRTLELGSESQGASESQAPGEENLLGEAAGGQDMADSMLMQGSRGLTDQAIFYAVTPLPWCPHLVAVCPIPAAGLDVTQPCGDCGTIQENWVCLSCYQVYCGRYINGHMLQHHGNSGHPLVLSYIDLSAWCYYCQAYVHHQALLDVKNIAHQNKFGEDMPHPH
# [4] = system: acetyl-α-tubulin (HDAC6 substrate) in U937 cells; test: In cellulo selectivity testing, western blot of acetyl-α-tubulin; type: cell-based; settings: 18 hours, SAHA 5 μM, 1f 20-60 μM, compared to DMSO control
# [5] = system: acetyl-histone H3 (HDAC1, 2, 3 substrate) in U937 cells; test: In cellulo selectivity testing, western blot of acetyl-histone H3; type: cell-based; settings: 18 hours, SAHA 5 μM
# HDAC1 [6] = molecular target: T2, HDAC1; settings: single concentration 1 μM; cited from earlier work
# HDAC6 [7] = molecular target: T3, HDAC6; settings: single concentration 1 μM; cited from earlier work
# HDAC6 [8] = molecular target: T3, HDAC6; settings: literature ref 55; cited from earlier work
# Chain of HDAC2 (Q92769 whole entry): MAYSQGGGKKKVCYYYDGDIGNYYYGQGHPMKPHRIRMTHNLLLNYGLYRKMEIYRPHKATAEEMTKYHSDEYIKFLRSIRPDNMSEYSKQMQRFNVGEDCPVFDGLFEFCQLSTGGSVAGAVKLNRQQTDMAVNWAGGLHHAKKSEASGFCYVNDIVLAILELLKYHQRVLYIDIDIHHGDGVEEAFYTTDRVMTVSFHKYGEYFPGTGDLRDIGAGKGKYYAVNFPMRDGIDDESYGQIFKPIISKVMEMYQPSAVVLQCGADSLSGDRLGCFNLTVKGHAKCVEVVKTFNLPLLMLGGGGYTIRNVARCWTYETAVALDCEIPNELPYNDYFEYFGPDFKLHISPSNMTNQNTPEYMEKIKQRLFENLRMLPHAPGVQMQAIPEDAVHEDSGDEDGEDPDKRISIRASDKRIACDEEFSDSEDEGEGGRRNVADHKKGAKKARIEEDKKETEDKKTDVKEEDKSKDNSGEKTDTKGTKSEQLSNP
# Chain of HDAC3 (O15379 whole entry): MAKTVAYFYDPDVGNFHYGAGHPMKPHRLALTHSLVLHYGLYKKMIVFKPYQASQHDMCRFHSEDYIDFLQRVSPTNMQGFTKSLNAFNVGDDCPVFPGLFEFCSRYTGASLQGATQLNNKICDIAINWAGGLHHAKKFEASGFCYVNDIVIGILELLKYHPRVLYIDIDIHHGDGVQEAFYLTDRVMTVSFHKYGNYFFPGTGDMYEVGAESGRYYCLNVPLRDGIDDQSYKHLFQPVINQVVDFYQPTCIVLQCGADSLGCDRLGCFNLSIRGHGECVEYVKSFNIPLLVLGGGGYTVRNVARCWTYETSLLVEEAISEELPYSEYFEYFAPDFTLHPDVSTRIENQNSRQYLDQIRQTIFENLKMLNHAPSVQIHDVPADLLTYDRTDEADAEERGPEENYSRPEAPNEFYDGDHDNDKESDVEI
# Chain of HDAC3 (Q9Y618 whole entry partner): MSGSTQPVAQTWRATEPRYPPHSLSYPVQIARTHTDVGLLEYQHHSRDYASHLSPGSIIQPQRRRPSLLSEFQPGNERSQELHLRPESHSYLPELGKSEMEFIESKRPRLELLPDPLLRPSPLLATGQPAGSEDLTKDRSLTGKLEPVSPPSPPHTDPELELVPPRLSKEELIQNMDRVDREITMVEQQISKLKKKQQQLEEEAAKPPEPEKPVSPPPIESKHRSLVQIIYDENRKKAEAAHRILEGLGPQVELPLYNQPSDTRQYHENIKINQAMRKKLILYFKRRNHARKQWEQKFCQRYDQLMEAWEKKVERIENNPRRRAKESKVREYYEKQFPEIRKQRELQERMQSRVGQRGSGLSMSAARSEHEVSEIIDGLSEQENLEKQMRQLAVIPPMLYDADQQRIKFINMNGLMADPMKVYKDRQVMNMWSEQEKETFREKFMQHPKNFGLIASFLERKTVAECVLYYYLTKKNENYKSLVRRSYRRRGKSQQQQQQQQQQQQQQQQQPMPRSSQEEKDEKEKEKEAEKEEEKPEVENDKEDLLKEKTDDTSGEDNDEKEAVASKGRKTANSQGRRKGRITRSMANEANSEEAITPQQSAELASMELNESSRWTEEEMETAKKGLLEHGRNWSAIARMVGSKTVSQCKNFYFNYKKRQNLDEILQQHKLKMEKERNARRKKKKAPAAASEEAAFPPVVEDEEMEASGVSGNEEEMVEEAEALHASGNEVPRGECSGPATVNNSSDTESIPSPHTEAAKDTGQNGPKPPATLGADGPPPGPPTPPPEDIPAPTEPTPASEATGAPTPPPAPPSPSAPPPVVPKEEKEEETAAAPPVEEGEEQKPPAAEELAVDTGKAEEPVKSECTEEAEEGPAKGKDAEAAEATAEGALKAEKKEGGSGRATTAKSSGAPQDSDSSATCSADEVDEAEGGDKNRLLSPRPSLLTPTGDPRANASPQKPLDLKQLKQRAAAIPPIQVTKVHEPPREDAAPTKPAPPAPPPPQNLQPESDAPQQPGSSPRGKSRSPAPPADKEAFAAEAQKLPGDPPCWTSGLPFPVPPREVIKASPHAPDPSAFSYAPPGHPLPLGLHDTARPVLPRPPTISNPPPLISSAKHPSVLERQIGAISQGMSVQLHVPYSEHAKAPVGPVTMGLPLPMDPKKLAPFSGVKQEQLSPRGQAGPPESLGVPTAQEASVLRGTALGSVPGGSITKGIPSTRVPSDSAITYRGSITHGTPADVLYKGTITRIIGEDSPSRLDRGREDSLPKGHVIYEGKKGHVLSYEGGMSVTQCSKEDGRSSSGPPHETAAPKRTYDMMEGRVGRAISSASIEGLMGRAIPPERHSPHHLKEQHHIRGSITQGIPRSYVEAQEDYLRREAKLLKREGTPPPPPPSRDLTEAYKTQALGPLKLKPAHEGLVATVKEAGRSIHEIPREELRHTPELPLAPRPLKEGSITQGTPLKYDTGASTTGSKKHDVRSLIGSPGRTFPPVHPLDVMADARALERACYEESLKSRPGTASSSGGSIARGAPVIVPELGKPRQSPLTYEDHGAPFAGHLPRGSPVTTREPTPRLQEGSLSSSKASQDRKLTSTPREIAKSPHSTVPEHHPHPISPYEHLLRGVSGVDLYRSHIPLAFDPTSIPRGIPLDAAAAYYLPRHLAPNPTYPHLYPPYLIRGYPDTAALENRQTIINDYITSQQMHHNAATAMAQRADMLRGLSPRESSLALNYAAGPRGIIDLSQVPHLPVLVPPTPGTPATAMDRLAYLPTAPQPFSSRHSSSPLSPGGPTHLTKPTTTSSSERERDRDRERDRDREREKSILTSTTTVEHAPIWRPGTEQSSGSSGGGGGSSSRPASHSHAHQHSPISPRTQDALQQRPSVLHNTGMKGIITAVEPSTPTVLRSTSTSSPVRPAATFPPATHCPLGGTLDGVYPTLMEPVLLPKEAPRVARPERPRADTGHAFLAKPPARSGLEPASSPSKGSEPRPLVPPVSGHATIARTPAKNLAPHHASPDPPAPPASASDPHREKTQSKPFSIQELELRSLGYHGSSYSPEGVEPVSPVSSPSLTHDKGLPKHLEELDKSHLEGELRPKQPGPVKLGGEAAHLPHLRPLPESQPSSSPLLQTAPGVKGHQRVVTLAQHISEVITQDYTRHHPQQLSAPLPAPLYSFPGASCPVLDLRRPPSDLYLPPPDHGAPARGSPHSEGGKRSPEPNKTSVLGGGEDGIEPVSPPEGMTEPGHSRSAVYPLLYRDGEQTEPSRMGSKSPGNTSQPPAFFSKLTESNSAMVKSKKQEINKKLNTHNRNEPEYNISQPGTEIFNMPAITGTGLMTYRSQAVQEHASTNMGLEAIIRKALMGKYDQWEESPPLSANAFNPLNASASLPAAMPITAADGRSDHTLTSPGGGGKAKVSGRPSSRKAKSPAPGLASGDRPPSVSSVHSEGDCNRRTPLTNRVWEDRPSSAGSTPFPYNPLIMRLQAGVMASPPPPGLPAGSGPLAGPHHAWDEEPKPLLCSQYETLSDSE
# T2 sequence (Q13547 whole entry): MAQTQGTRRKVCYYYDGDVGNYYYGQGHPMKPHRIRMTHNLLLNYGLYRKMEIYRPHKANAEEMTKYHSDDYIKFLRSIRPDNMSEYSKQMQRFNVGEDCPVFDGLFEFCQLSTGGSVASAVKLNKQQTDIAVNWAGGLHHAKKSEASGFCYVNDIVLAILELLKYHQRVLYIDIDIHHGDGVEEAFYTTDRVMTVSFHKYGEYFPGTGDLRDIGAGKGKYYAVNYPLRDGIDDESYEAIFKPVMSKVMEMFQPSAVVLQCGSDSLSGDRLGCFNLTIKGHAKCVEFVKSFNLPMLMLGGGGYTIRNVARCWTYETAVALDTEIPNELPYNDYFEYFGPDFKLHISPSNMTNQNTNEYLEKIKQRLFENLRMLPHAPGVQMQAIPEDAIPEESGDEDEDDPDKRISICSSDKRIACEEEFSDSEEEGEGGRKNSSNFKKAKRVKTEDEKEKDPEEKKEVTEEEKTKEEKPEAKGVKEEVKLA
smiles,measurement,setting,value
"CCCCC(CCCC(=O)Nc1ccccc1)CCC(=O)NO (racemic) [Compound 1c, 4-butyl-N^1-hydroxy-N^8-phenyloctanediamide]",Deacetylase activity (%),[1]; 3.0 × 10^−5 M,69 ± 2%
same,Deacetylase activity (%),[1]; 6.0 × 10^−5 M,44 ± 4%
same,Deacetylase activity (%),[1]; […] 10^−4 M,24 ± 1%
same,Deacetylase activity (%),[1]; […] 10^−5 M,88 ± 1%
same,Deacetylase activity (%),[1]; […] 10^−6 M,97 ± 2%
same,activity at 0.1 µM,recombinant HDAC8; 1.0 × 10^−7 M,41 ± 5%
same,activity at 0.0125 µM,recombinant HDAC8; 1.25 × 10^−8 M,84 ± 1%
same,activity at 0.2 µM,recombinant HDAC8; 2.0 × 10^−7 M,28 ± 4%
same,activity at […],recombinant HDAC8; 2.5 × 10^−8 M,74 ± 3%
same,activity at 0.05 µM,recombinant HDAC8; 5.0 × 10^−8 M,61 ± 7%
same,EC50,U937 cells,34 µM
same,"viability at 44 h, 1 µM",in vitro,98 ± 6%
same,"viability at 44 h, 10 µM",in vitro,62 ± 16%
same,activity at 3.5 µM,HDAC1 [2],81 ± 1%
same,activity at 7 µM,HDAC1 [2],67 ± 2%
same,activity at 14 µM,HDAC1 [2],53 ± 3%
same,activity at 28 µM,HDAC1 [2],35 ± 1%
same,activity at 56 µM,HDAC1 [2],19 ± 1%
same,activity at 3.5 µM,HDAC2,81 ± 5%
same,activity at 7 µM,HDAC2,71 ± 2%
same,activity at 14 µM,HDAC2,57 ± 1%
same,activity at 28 µM,HDAC2,43 ± 2%
same,activity at 56 µM,HDAC2,18 ± 10%
same,activity at […],HDAC2,87 ± 1%
same,activity at 3.5 µM,HDAC3,79 ± 3%
same,activity at 7 µM,HDAC3,79 ± 3%
same,activity at 14 µM,HDAC3,64 ± 2%
same,activity at 28 µM,HDAC3,48 ± 5%
same,activity at 56 µM,HDAC3,25 ± 5%
same,activity at 0.05 µM,HDAC6 [3],61 ± 6%
same,activity at 0.1 µM,HDAC6 [3],46 ± 9%
same,activity at 0.2 µM,HDAC6 [3],39 ± 5%
same,activity at 0.4 µM,HDAC6 [3],23 ± 3%
same,activity at […],HDAC6 [3],70 ± 6%
"O=C(CCCCCCC(=O)Nc1ccccc1)NO [SAHA, suberoylamide hydroxamic acid]","levels of acetyl-α-tubulin (AcTub), western blot",[4],increases levels
same,"levels of acetyl-histone H3 (AcH3), western blot",[5],increases levels
same,Deacetylase activity (%) HDAC1,HDAC1 [6],8.9 ± 0.1%
same,Deacetylase activity (%) HDAC6,HDAC6 [7],7.9 ± 1.6%
same,"viability at 44 h, 10 µM",in vitro,5 ± 3%
CCCC(CCC)C(=O)NO [Valpropylhydroxamic acid],"fold selectivity for HDAC6 and 8 against HDAC1, 2, and 3 (reported)",HDAC6 [8],9-17 fold
